Test results taken from patent publication US10499641B2 (priority 2010, dated 2019).

Experiments:
[1] = test system: Phytophthora infestans; type: in vivo; details: young tomato plants, sprayed, active ingredient concentration 100 ppm, inoculated 1 day after treatment, evaluation 7 days after inoculation; 100% = no infection
[2] = test system: Plasmopara viticola; assay: Plasmopara test (grapevine)/protective; type: in vivo; details: young grapevine plants, sprayed, active ingredient concentration 10 ppm, evaluation 6 days after inoculation; 100% = no infection
Experimental: Plasmopara Test (Grapevine)/Protective
• Solvent: 24.5 parts by weight of acetone • 24.5 parts by weight of dimethylacetamide • Emulsifier: 1 part by weight of alkylaryl polyglycol ether
[To produce an appropriate active ingredient formulation, 1 part by weight of active ingredient is mixed with the specified amounts of solvent and emulsifier, and the concentrate is diluted with water to the desired concentration.
To test for protective efficacy, young plants are sprayed with the active ingredient formulation at the stated application rate. After the spray coating has dried on, the plants are inoculated with an aqueous spore suspension of Plasmopara viticola and then remain in an incubation cabin at approx. 20° C. and 100% relative air humidity for 1 day. Subsequently, the plants are placed in a greenhouse at approx. 21° C. and approx. 90% air humidity for 4 days. The plants are then moistened and placed in an incubation cabin for 1 day.
Evaluation follows 6 days after the inoculation. 0% means an efficacy which corresponds to that of the control, whereas an efficacy of 100% means that no infection is observed.
In this test, the following inventive compounds show, at an active ingredient concentration of 10 ppm, an efficacy of 70% or more: […]

SMILES	Eff. % [1]	Eff. % [2]
O=C(Cn1nc(C(F)F)cc1C(F)F)N1CCC(c2nc(C3=NOC(c4cccc(C=NO)c4)C3)cs2)CC1 (mixture of isomers) [Example I-22]	100%	100%
CON=C(C)c1cccc(C2CC(c3csc(C4CCN(C(=O)Nc5cc(Cl)ccc5C)CC4)n3)=NO2)c1 (mixture of isomers) [Example I-23]	100%	98%
CCON=Cc1ccccc1C1CC(c2csc(C3CCN(C(=O)Cn4nc(C(F)F)cc4C(F)F)CC3)n2)=NO1 (mixture of isomers) [Example I-27]	100%	99%
CON=C(C)c1ccccc1C1CC(c2csc(C3CCN(C(=O)Cn4nc(C(F)(F)F)cc4C)CC3)n2)=NO1 (mixture of isomers) [Example I-31]	100%	97%
CON=C(C)c1ccccc1C1CC(c2csc(C3CCN(C(=O)Cn4nc(C(F)F)cc4C(F)F)CC3)n2)=NO1 (mixture of isomers) [Example I-32]	100%	85%
O=C(Cn1nc(C(F)F)cc1C(F)F)N1CCC(c2nc(C3=NOC(c4ccccc4C=NO)C3)cs2)CC1 (mixture of isomers) [Example I-35]	95%	100%
Cc1ccc(Cl)cc1NC(=O)N1CCC(c2nc(C3=NOC(c4ccccc4C=NO)C3)cs2)CC1 (mixture of isomers) [Example I-36]	100%	100%
CON=C(C)c1cccc(C2CC(c3csc(C4CCN(C(=O)Cn5nc(C(F)(F)F)cc5C)CC4)n3)=NO2)c1 (stereo not shown) [Example I-3]	100%	97%
CC(=NO)c1cccc(C2CC(c3csc(C4CCN(C(=O)Cn5nc(C(F)(F)F)cc5C)CC4)n3)=NO2)c1 (stereo not shown) [Example I-7]	100%	100%
CON=Cc1ccccc1C1CC(c2csc(C3CCN(C(=O)Cn4nc(C(F)F)cc4C(F)F)CC3)n2)=NO1 (stereo not shown) [Example I-26, 2-{3-[2-(1-{[3,5-Bis(difluoromethyl)-1H-pyrazol-1-yl]acetyl}piperidin-4-yl)-1,3-thiazol-4-yl]-4,5-dihydro-1,2-oxazol-5-yl}benzaldehyde O-methyloxime]	100%	100%
CCON=Cc1ccccc1C1CC(c2csc(C3CCN(C(=O)Cn4nc(C(F)(F)F)cc4C)CC3)n2)=NO1 (stereo not shown) [Example I-29]	100%	90%
CON=Cc1ccccc1C1CC(c2csc(C3CCN(C(=O)Cn4nc(C(F)(F)F)cc4C)CC3)n2)=NO1 (stereo not shown) [Example I-34]	100%	87%
CON=Cc1ccccc1C1CC(c2csc(C3CCN(C(=O)Nc4cc(Cl)ccc4C)CC3)n2)=NO1 (stereo not shown) [Example I-41, N-(5-Chloro-2-methylphenyl)-4-[4-(5-{2-[(methoxyimino)methyl]phenyl}-4,5-dihydro-1,2-oxazol-3-yl)-1,3-thiazol-2-yl]piperidine-1-carboxamide]	100%	81%
C#CCOCc1ccccc1C1CC(c2csc(C3CCN(C(=O)Cn4nc(C(F)(F)F)cc4C)CC3)n2)=NO1 (stereo not shown) [Example I-46]	94%	94%
CC(=O)OCc1ccccc1C1CC(c2csc(C3CCN(C(=O)Cn4nc(C(F)(F)F)cc4C)CC3)n2)=NO1 (stereo not shown) [Example I-47]	94%	90%
C#CCOCc1ccccc1C1CC(c2csc(C3CCN(C(=O)Cn4nc(C(F)F)cc4C(F)F)CC3)n2)=NO1 (stereo not shown) [Example I-53]	94%	96%
Cc1ccc(Cl)cc1NC(=O)N1CCC(c2nc(C3=NOC(c4c(Cl)cccc4OS(C)(=O)=O)C3)cs2)CC1 (stereo not shown) [Example I-54]	94%	100%
CC(=O)OCc1ccccc1C1CC(c2csc(C3CCN(C(=O)Cn4nc(C(F)F)cc4C(F)F)CC3)n2)=NO1 (stereo not shown) [Example I-55]	94%	92%
COCCS(=O)(=O)Cc1ccccc1C1CC(c2csc(C3CCN(C(=O)Cn4nc(C(F)F)cc4C(F)F)CC3)n2)=NO1 (stereo not shown) [Example I-57]	94%	90%
N#CCOc1ccccc1C1CC(c2csc(C3CCN(C(=O)Cn4nc(C(F)F)cc4C(F)F)CC3)n2)=NO1 (stereo not shown) [Example I-63]	94%	100%
O=C(Cn1nc(C(F)F)cc1C(F)F)N1CCC(c2nc(C3=NOC(c4ccccc4OS(=O)(=O)C4CC4)C3)cs2)CC1 (stereo not shown) [Example I-64]	100%	100%
Cc1ccc(C)c(NC(=O)N2CCC(c3nc(C4=NOC(c5ccccc5OS(C)(=O)=O)C4)cs3)CC2)c1 (stereo not shown) [Example I-74]	100%	100%
Cc1cc(C(F)F)nn1CC(=O)N1CCC(c2nc(C3=NOC(c4ccccc4OCC#N)C3)cs2)CC1 (stereo not shown) [Example I-76]	100%	93%
CCS(=O)(=O)Oc1cccc(C2CC(c3csc(C4CCN(C(=O)Cn5nc(C(F)F)cc5C(F)F)CC4)n3)=NO2)c1 (stereo not shown) [Example I-77]	98%	93%

SMILES	Eff. % [1]	Eff. % [2]
Cc1cc(C(F)(F)F)nn1CC(=O)N1CCC(c2nc(C3=NOC(c4c(Cl)cccc4OCC#N)C3)cs2)CC1 (stereo not shown) [Example I-78]	80%	97%
N#CCOc1ccc(C2CC(c3csc(C4CCN(C(=O)Cn5nc(C(F)F)cc5C(F)F)CC4)n3)=NO2)cc1 (stereo not shown) [Example I-81]	100%	99%
C/C=C/C(=O)Oc1ccccc1C1CC(c2csc(C3CCN(C(=O)Cn4nc(C(F)F)cc4C(F)F)CC3)n2)=NO1 (stereo not shown) [Example I-82]	70%	94%
O=C(Cn1nc(C(F)F)cc1C(F)F)N1CCC(c2nc(C3=NOC(c4cccc(OS(=O)(=O)C5CC5)c4)C3)cs2)CC1 (stereo not shown) [Example I-83]	98%	94%
O=C(Cn1nc(C(F)F)cc1C(F)F)N1CCC(c2nc(C3=NOC(c4cc(F)ccc4OS(=O)(=O)C4CC4)C3)cs2)CC1 (stereo not shown) [Example I-84]	90%	100%
CS(=O)(=O)Oc1c(F)cccc1C1CC(c2csc(C3CCN(C(=O)Cn4nc(C(F)F)cc4C(F)F)CC3)n2)=NO1 (stereo not shown) [Example I-85]	75%	100%
Cc1cc(C(F)(F)F)nn1CC(=O)N1CCC(c2nc(C3=NOC(c4c(F)cccc4OCC#N)C3)cs2)CC1 (stereo not shown) [Example I-86]	75%	99%
N#CCCn1cccc1C1CC(c2csc(C3CCN(C(=O)Cn4nc(C(F)F)cc4C(F)F)CC3)n2)=NO1 (stereo not shown) [Example I-87]	80%	95%
CS(=O)(=O)Oc1cccc(Cl)c1C1CC(c2csc(C3CCN(C(=O)Cn4nc(C(F)F)cc4C(F)F)CC3)n2)=NO1 (stereo not shown) [Example I-102]	75%	100%
Cc1cc(C(F)(F)F)nn1CC(=O)N1CCC(c2nc(C3=NOC(c4c(Cl)cccc4OS(C)(=O)=O)C3)cs2)CC1 (stereo not shown) [Example I-103]	80%	100%
O=CNc1ccccc1C1CC(c2csc(C3CCN(C(=O)Cn4nc(C(F)F)cc4C(F)F)CC3)n2)=NO1 (stereo not shown) [Example I-108]	100%	93%
CSCOc1ccccc1C1CC(c2csc(C3CCN(C(=O)Cn4nc(C(F)F)cc4C(F)F)CC3)n2)=NO1 (stereo not shown) [Example I-112]	94%	100%
N#CCOc1cccc(F)c1C1CC(c2csc(C3CCN(C(=O)Cn4nc(C(F)F)cc4C(F)F)CC3)n2)=NO1 (stereo not shown) [Example I-113]	85%	100%
Cc1cc(C(F)(F)F)nn1CC(=O)N1CCC(c2nc(C3=NOC(c4cccc(F)c4OS(=O)(=O)C4CC4)C3)cs2)CC1 (stereo not shown) [Example I-114]	94%	100%
O=C(Cn1nc(C(F)F)cc1C(F)F)N1CCC(c2nc(C3=NOC(c4ccccc4OS(=O)(=O)C(F)(F)F)C3)cs2)CC1 (stereo not shown) [Example I-115]	88%	100%
C=CC(=O)Oc1ccccc1C1CC(c2csc(C3CCN(C(=O)Cn4nc(C(F)F)cc4C(F)F)CC3)n2)=NO1 (stereo not shown) [Example I-116]	98%	100%
C#CCN(C=O)c1ccccc1C1CC(c2csc(C3CCN(C(=O)Cn4nc(C(F)F)cc4C(F)F)CC3)n2)=NO1 (stereo not shown) [Example I-117]	79%	96%
CON=Cc1cccc(F)c1C1CC(c2csc(C3CCN(C(=O)Cn4nc(C(F)(F)F)cc4C)CC3)n2)=NO1 (stereo not shown) [Example I-118]	95%	100%
CCS(=O)(=O)Oc1ccccc1C1CC(c2csc(C3CCN(C(=O)Cn4nc(C(F)(F)F)cc4C)CC3)n2)=NO1 (stereo not shown) [Example I-119]	89%	100%
CSCOc1ccccc1C1CC(c2csc(C3CCN(C(=O)Cn4nc(C(F)(F)F)cc4C)CC3)n2)=NO1 (stereo not shown) [Example I-120]	89%	95%
N#CCN(C=O)c1ccccc1C1CC(c2csc(C3CCN(C(=O)Cn4nc(C(F)F)cc4C(F)F)CC3)n2)=NO1 (stereo not shown) [Example I-121]	100%	98%
O=CNc1ccccc1C1CC(c2csc(C3CCN(C(=O)Nc4cc(C(F)F)ccc4C(F)F)CC3)n2)=NO1 (stereo not shown) [Example I-122]	97%	89%
O=CNc1ccccc1C1CC(c2csc(C3CCN(C(=O)Cc4cc(C(F)F)ccc4C(F)F)CC3)n2)=NO1 (stereo not shown) [Example I-123]	100%	73%
